We go through 2 compounds from patent US20260174790A1, “HUMAN AND MURINE OPRM1 PROMOTERS AND USES THEREOF” (The Trustees of the University of Pennsylvania, priority 2022, published 2026).

The subject of assay [1] is spinal MOR+ neurons. The experiment in a line: Von Frey filament Up-Down test with chemogenetic inhibition. Type of assay: in vivo, mouse. The note with it: intrathecal DCZ 10 pg, mMORp-hM4Di-mCherry injected mice; von Frey and hot plate. How it is done:
For spinal cord chemogenetic studies, mice were injected intraparenchymally at four sites (bilaterally at L4 and L5) with 400 nL of AAV1-mMORp-hM4Di-mCherry (titer: 3.1×10^12 gc/mL) to drive transduction of inhibitory DREADD receptor in spinal cord neurons. Using a modified, minimally invasive method for microinjection in the mouse spinal dorsal horn without laminectomy^91, mice were first anesthetized with isoflurane gas in oxygen (initial dose=4%, maintenance dose=2%), the back shaved and wiped with alcohol and povidone-iodine followed by a 2 cm incision made through the skin, and then placed within a modified Kopf stereotaxic frame to stabilize the T13 and L3 spinal column vertebrae. Next, the spinal column was slightly arched upwards by ˜30°, 0.2 mg/kg lidocaine was administered to the overlying muscle, which was then was gently dissected to expose the interspace above and below the T13 vertebrae, allowing direct access to the L3-5 spinal cord dorsal surface. […]
Von Frey filament touch test: To evaluate mechanical reflexive sensitivity, we used a logarithmically increasing set of 8 von Frey filaments (Stoelting), ranging in gram force from 0.07 to 6.0 grams. […] Using the Up-Down statistical method^100, the 50% withdrawal mechanical threshold scores were calculated for each mouse and then averaged across the experimental groups. […]

The subject of assay [2] is MOR+ CeA neurons. The experiment in a line: In vivo fiber photometry, chronic morphine drinking and naloxone precipitated withdrawal. Details: species or system mouse. The note with it: mMORp-GCaMP6f mice, forced morphine drinking (0.3 mg/ml 3 days, 0.5 mg/ml 4 days), naloxone i.p. 3 mg/kg, 20-minute window.
Description: For fiber photometry studies, mice were injected with ˜300 nL of recombinant AAV1-mMORp-GCaMP6f (titer: 3.69×10^12 gc/mL) in the right CeA, followed immediately by the placement of a fiberoptic implant (˜4.7 mm fiber, Doric Lenses) approximately 0.1-0.2 mm above the DV coordinate of the injection site (same as listed above). After setting the fiberoptic in position, MetaBond (Parkel1) and Jet Set dental acrylic (Lang Dental) were applied to the skull of a mouse to rapidly and firmly fix the fiberoptic in place. In brief, after exposure of the skull, the bone was scored with a scalpel blade to provide grooves for the MetaBond to settle into and provide better adhesion. […] All mice were monitored for up to two days following surgical procedures to ensure the animals' proper recovery.
In Vivo Fiber Photometry Recordings and Analysis: Optical recordings of GCaMP6f fluorescence were acquired using an RZ10× fiber photometry detection system (Tucker-Davis Technologies), consisting of a processor with Synapse software (Tucker-Davis Technologies), and optical components (Doric Lenses and ThorLabs). Excitation wavelengths generated by LEDs (460 nm blue light and 405 nm violet light) were relayed through a filtered fluorescence minicube at spectral bandwidths of 460-495 and 405 nm to a pre-bleached mono fiberoptic patch cord connected to the implant on top of each animal's head. […]
In assay [3] the test system is MOR+ CeA neurons. Briefly: In vivo fiber photometry, hot water hind paw stimulation. The note with it: mMORp-GCaMP6f mice, morphine i.p. 10 mg/kg 30 minutes prior to hot water hind paw stimulations. Details: species or system mouse.
Description: For fiber photometry studies, mice were injected with ˜300 nL of recombinant AAV1-mMORp-GCaMP6f (titer: 3.69×10^12 gc/mL) in the right CeA, followed immediately by the placement of a fiberoptic implant (˜4.7 mm fiber, Doric Lenses) approximately 0.1-0.2 mm above the DV coordinate of the injection site (same as listed above). After setting the fiberoptic in position, MetaBond (Parkel1) and Jet Set dental acrylic (Lang Dental) were applied to the skull of a mouse to rapidly and firmly fix the fiberoptic in place. In brief, after exposure of the skull, the bone was scored with a scalpel blade to provide grooves for the MetaBond to settle into and provide better adhesion. After lowering the fiberoptic into the craniotomy hole, the skull was cleaned with saline and then fully air dried. […] All mice were monitored for up to two days following surgical procedures to ensure the animals' proper recovery.
Hot water hindpaw stimulation test: To evaluate responses to acute, noxious thermal stimulations during fiber photometry testing, we used a hot water hind paw application protocol described previously^102. […] Animals were continuously recorded by a web camera positioned to face the front of the cylinder in which the animal was housed, and all relevant behaviors time-locked to calcium mediated events were scored post-hoc using the video footage. […]

Turning to `CN1CCN(C2=Nc3ccccc3Nc3ccccc32)CC1` [DCZ, deschloroclozapine], the “analgesic effects on activation of mMORp-hM4Di in spinal cord neurons” value in assay [1] is “analgesic effects similar to CNO treatment”. On to `CN1CC[C@]23c4c5ccc(O)c4O[C@H]2[C@@H](O)C=C[C@H]3[C@H]1C5.O=S(=O)(O)O` [morphine, morphine sulfate], for which the “average post naloxone calcium events” value in assay [2] is 91. Besides, the “calcium mediated event peak z-score” value in assay [3] is listed as 7.6.
